Assay results from article PMC11887212 (Journal of Hematology & Oncology, 2025).

Biological target: sorcin (Homo sapiens, UniProt P30626)
Test: SPR
Assay type: binding

sorcin, sequence (P30626 whole entry): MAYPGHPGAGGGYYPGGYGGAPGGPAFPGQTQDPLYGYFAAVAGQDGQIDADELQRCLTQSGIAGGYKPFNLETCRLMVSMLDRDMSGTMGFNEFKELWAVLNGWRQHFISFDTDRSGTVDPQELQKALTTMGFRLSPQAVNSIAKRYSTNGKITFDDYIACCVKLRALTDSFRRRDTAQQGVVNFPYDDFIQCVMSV

In the case of CC1=C(O)C(=O)C=C2C1=CC=C1[C@@]2(C)CC[C@@]2(C)[C@@H]3C[C@](C)(C(=O)O)CC[C@]3(C)CC[C@]12C [compound 1, celastrol], the Kd is reported as 2130 nM.
